Laboratory results from ChEMBL document CHEMBL4513160, “CO-ADD screening of MMV (CH) - Small Polar Library”.
Converted amounts (≈) assume the structure as drawn.

Experiments:
[1] = system: Pseudomonas aeruginosa; assay: Antibacterial activity against Pseudomonas aeruginosa PAO397 [PAO1 d(mexAB-oprM) d(mexCD-oprJ) d(mexEF-oprN) d(mexJKL) d(mexXY) d(opmH)] (CO-ADD:GN_211); MIC in CAMBH media using NBS plates, by OD(600); format: functional; conditions: ASSAY_TEST Inhibition of Bacterial Growth, detection method Absorption (OD600), MEDIA CAMHB, plate type 384well, CORNING #3640, time 18 hr
[2] = system: Pseudomonas aeruginosa; assay: microbe, parasite or virus in culture; conditions: ATCC 27853, 18 h, ASSAY_TEST Inhibition of Bacterial Growth, detection method Absorption (OD600), MEDIA CAMHB, plate type 384well, NBS, CORNING #3640
Description: Antibacterial activity against Pseudomonas aeruginosa ATCC 27853 (CO-ADD:GN_042); MIC in CAMBH media using NBS plates, by OD(600)

[3] = system: Acinetobacter baumannii; assay: microbe, parasite or virus in culture; conditions: ATCC 19606, 18 h, ASSAY_TEST Inhibition of Bacterial Growth, detection method Absorption (OD600), MEDIA CAMHB, plate type 384well, NBS, CORNING #3640
Description: Antibacterial activity against Acinetobacter baumannii ATCC 19606 (CO-ADD:GN_034); MIC in CAMBH media using NBS plates, by OD600

| MIC [1] | MIC [2] | MIC [3] | SMILES |
| --- | --- | --- | --- |
| > 300 µM | > 300 µM | > 300 µM | NCc1cccc(-c2nccs2)c1 |
| > 300 µM | > 300 µM | > 300 µM | NCC(O)c1ccc(-c2ccccc2)cc1 (configuration not stated) |
| 90 µM (≈ 25.3 µg/mL) | 300 µM (≈ 84.2 µg/mL) | > 300 µM | NCCNC(=O)c1ccc(-c2ccc(Cl)cc2)s1 |

Continued, molecule first:

| SMILES | MIC [1] | MIC [2] | MIC [3] |
| --- | --- | --- | --- |
| Cc1cscc1C(=O)Nc1ncnn1C | > 300 µM | > 300 µM | > 300 µM |
| OCc1ccncc1NCc1coc2ccccc12 | > 300 µM | > 300 µM | > 300 µM |
| NCc1cnn(-c2ccc(Br)cc2)c1 | > 300 µM | > 300 µM | > 300 µM |
| O=S1(=O)CCC(CNc2ccnc3ccc(Cl)cc23)C1 (configuration not stated) | > 300 µM | > 300 µM | > 300 µM |
| CNc1nnc(-c2ccccc2)s1 | > 300 µM | > 300 µM | > 300 µM |
| Cn1ccc(C(=O)Nc2ccc(Br)cn2)n1 | > 300 µM | > 300 µM | > 300 µM |
